The record followed here is patent US4434788A, “Enhancer of anti-tumor effect” (Yamasa Shoyu Kabushiki Kaisha, priority 1980, dated 1984).

The experiment deals with EMT-6 tumors. Briefly: Enhancement of the effect of anti-tumor agents on EMT-6 tumor in mouse. Type of experiment: in vivo, BALB/c-strain mice. To be noted: for Mean tumor diameter 7 days after commencement of treatment: control 7.38; for Mean tumor diameter 14 days after commencement of treatment: control 9.20; for Mean tumor diameter ratio 7 days after commencement of treatment: control 1.27; for Mean tumor diameter ratio 14 days after commencement of treatment: control 1.57. The protocol:
(1) EMT-6 tumor cells (1×10^6) were inoculated intradermally into the right thighs of BALB/c-strain mice (7 weeks old). On the 10th day after inoculation of the tumor cells and thereafter, various enhancer chemicals in physiological saline solutions were administered intrapenitoneally to the mouse every other day in the indicated doses for respective agents. The pharmaceutical agents of the present invention were administered 30 minutes after administration of the anti-tumor agents. After commencement of the treatment with pharmaceutical agents, the tumor sizes were measured every other day and compared with the control group.

Setting [1] is: ADM alone 2 mg/kg × 8, n = 10, before treatment 6.72 ± 1.00.
The mark [2] stands for this setting: araC alone 50 mg/kg × 8, n = 7, before treatment 6.11 ± 0.78.
Setting [3] is: ACNU alone 25 mg/kg × 5, n = 7, before treatment 6.23 ± 0.76.

Consider `COc1cccc2c1C(=O)c1c(O)c3c(c(O)c1C2=O)C[C@@](O)(C(=O)CO)C[C@@H]3O[C@H]1C[C@H](N)[C@H](O)[C@H](C)O1` [ADM, Adriamycin, reference compound], for which, under setting [1], the “Mean tumor diameter 7 days after commencement of treatment” value (shortened to “Mean tumor diameter 7 days”) was determined as 7.67 ± 1.30 mm and the “Mean tumor diameter 14 days after commencement of treatment” value (“Mean tumor diameter 14 days” below) stood at 9.04 ± 1.77 mm. Where the note is “ADM alone 2 mg/kg × 8, n = 10”, the “Mean tumor diameter ratio 7 days after commencement of treatment” value (shortened to “Mean tumor diameter ratio 7 days”) amounted to 1.17 ± 0.29 and the “Mean tumor diameter ratio 14 days after commencement of treatment” value (from here on “Mean tumor diameter ratio 14 days”) was determined as 1.38 ± 0.36.

For `Nc1ccn([C@@H]2O[C@H](CO)[C@@H](O)[C@@H]2O)c(=O)n1` [araC, 1-β-D-arabinofuranosylcytosine, reference compound], under setting [2], the “Mean tumor diameter 7 days” value is 7.11 ± 1.48 mm and the “Mean tumor diameter 14 days” value came to 8.07 ± 2.62 mm. Also, for the setting “araC alone 50 mg/kg × 8, n = 7”, the “Mean tumor diameter ratio 7 days” value amounted to 1.16 ± 0.18 and the “Mean tumor diameter ratio 14 days” value is reported as 1.38 ± 0.46.

`O=c1[nH]c(=O)n(C2CCCO2)cc1F` (stereo not shown) [FT-207, 1-(2-tetrahydrofuryl)-5-fluorouracil, reference compound]: where the note is “FT-207 alone 100 mg/kg × 6, n = 9, before treatment 6.96 ± 1.43, control 11.43”, the “Mean tumor diameter 18 days after commencement of treatment” value is 8.37 ± 2.12 mm. For the same compound, the “Mean tumor diameter ratio 18 days after commencement of treatment” value (FT-207 alone 100 mg/kg × 6, n = 9, control 1.97) stood at 1.20 ± 0.31.

With `Cc1ncc(CNC(=O)N(CCCl)N=O)c(N)n1` [ACNU, reference compound], under setting [3], the “Mean tumor diameter 7 days” value is reported as 5.51 ± 1.91 mm and the “Mean tumor diameter 14 days” value is recorded as 6.54 ± 1.82 mm. In addition, where the note is “ACNU alone 25 mg/kg × 5, n = 7”, the “Mean tumor diameter ratio 7 days” value was determined as 0.87 ± 0.21 and the “Mean tumor diameter ratio 14 days” value is given as 1.06 ± 0.29.

Turning to Bleomycin [BLM, reference compound], the “Mean tumor diameter 18 days after commencement of treatment” value (BLM alone 25 mg/kg × 4, n = 10, before treatment 6.12 ± 1.17, control 11.43 ± 2.30) stood at 9.77 ± 2.50 mm. Besides, for the setting “BLM alone 25 mg/kg × 4, n = 10, control 1.97 ± 0.40”, the “Mean tumor diameter ratio 18 days after commencement of treatment” value is listed as 1.60 ± 0.41.
